Measured values: patent publication US5395836A, “8-tricycloalkyl xanthine derivatives” (Kyowa Hakko Kogyo Co., Ltd., priority 1993, dated 1995)

Key:
[1] = Renal-protecting Effect (Glycerol-Induced Renal Failure Model); format: in vivo, rat (Wistar); settings: for Amount of creatinine in blood serum / Amount of uria nitrogen in blood serum: ip, 24 h after glycerol
Protocol: A renal failure is a state where the renal function is lowered and the homeostasis of a body fluid can be no longer maintained. It is known that an acute renal failure characteristic of uriniferous tubule disorder is caused by subcutaneous or intramuscular injection of glycerol to rats [Can. J. Physiol.
Male Wistar rats were kept deprived of water for 18 hours, and served for the test. A test compound was intraperitoneally administered to the rats (dosage: 0.1 ml/100 g). After 30 minutes, the rats were anesthetized with ether and 50% glycerol was subcutaneously administered (dosage: 0.8 ml/100 g) to the rats, pinching the dorsal skin. Twenty four hours after the administration of glycerol, the rats were anesthetized with ether and 5 ml of blood was collected from the abdominal aorta. The collected blood was allowed to stand for 30 minutes or longer and then centrifuged at 3,000 rpm for 10 minutes, and the amounts of the serum creatinine and the serum urine-nitrogen (UN) were determined by auto analyzer (Olympus AU510) [creatinine test (Jaffe method), UN test (enzyme method); both tests were used in Olympus AU500/550 exclusive reagent […].

adenosine A1 receptor = target: T1, adenosine A1 receptor (Rattus norvegicus, UniProt P25099); assay: Adenosine Receptor Antagonizing Activity (Adenosine A1 Receptor Binding Test); settings: rat corpus striatum; 3H-CHA 1.1 nM; 25° C., 90 min; Cheng-Prusoff
T1 construct: from tissue; host or cells: rat corpus striatum, washed membrane suspension
T1 sequence (P25099 1-326): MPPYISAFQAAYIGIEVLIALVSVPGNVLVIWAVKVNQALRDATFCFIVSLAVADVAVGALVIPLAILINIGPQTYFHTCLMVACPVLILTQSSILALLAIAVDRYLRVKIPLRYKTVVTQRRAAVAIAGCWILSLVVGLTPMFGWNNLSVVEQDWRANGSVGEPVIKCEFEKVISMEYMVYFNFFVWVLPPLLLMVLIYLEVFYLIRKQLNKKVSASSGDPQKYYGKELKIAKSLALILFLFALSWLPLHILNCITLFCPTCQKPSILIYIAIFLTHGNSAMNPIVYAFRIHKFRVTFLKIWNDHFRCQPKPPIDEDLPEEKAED
Protocol: The test was conducted according to the method of Bruns et al. [Proc. Natl. Acad. Sci. U.S.A., 77., 5547 (1980)] with slight modification.
Corpus striatum of a rat was suspended in ice-cooled 50 mM Tris hydroxymethyl aminomethane hydrochloride (Tris HCl) buffer (pH 7.7) by using Polytron homogenizer (manufactured by Kinematicas Co.). The suspension was centrifuged (50,000×g, 10 minutes), and the precipitate was suspended again in the same amount of 50 mM Tris HCl buffer. The suspension was centrifuged under the same conditions, and the final precipitate was suspended once again in 50 mM Tris HCl buffer to give a tissue concentration of 100 mg (wet weight)/ml. The tissue suspension was allowed to stand in the presence of 0.02 unit/mg tissue of adenosine deaminase (manufacture by Sigma Co.) at 37° C. for 30 minutes. The tissue suspension was centrifuged (50,000×g, 10 minutes) and to the obtained precipitates was added 50 mM Tris HCl buffer to give a tissue concentration of 10 mg (wet weight)/ml.
To 1 ml of the tissue suspension thus prepared, were added 50 μl of cyclohexyladenosine labeled with tritium (^3 H-CHA: 27 Ci/mmol, manufactured by New England Nuclear) (final concentration: 1.1 nM), and 50 μl of a test compound. The resulting mixture was allowed to stand at 25° C. for 90 minutes and then rapidly filtered by suction through a glass fiber filter (GF/C, manufactured by Whatman Co.). The filter was immediately washed three times with 5 ml each of ice-cooled 50 mM Tris HCl buffer, and transferred to a vial, and scintillator (EX-H by Wako Pure Chemical Industries, Ltd.) was added thereto. The radioactivity on the filter was determined with a liquid scintillation counter (manufactured by Packard Instrument Co.).
The inhibition rate (Ki value) of the test compound against the binding of A1 receptors (^3 H-CHA binding) was calculated by the equation of Cheng-Prusoff. [formula]

Diuretic Effect = format: in vivo, rat (Wistar); settings: po, 4 hours; for Increase in amount of K+ excreted Δ(%) / Increase in amount of Na+ excreted Δ(%) / Increase in amount of urine Δ(%): control 0; for Na+/K+: control 1.00
Protocol: The experiment was performed by using Wistar rats (male; 150 to 300 g). The rats were starved for 18 hours prior to the administration of a test compound (n=4 to 5). After test compounds were dissolved in 0.4% methanol, 1% dimethylsulfoxide and 0.01N sodium hydroxide/physiological saline, and administered intravenously, the physiological saline (25 ml/kg) was orally administered. Alternatively, test compounds dissolved in the physiological saline (25 ml/kg) was orally administered to the rats. Urine was collected from the rats during 4 hours after the oral administration, and urine volume was measured by a graduated measuring cylinder, and the electrolytes in the urine (Na^+ and K^+) were determined by flame photometer (775 A manufactured by Hitachi, Ltd.).

[2] = 0.03 mg/kg, control 4.55 ± 0.24
[3] = 0.03 mg/kg, control 137.2 ± 5.0
[4] = 0.01 mg/kg, control 3.90 ± 0.24 (compounds 6, 7), 4.35 ± 0.23 (compound 3)
[5] = 0.01 mg/kg, control 124.9 ± 7.5 (compounds 6, 7), 139.7 ± 10.2 (compound 3)

Row | Ki (adenosine A1 receptor) | SMILES | Amount of creatinine in blood serum [1, 2] | Amount of uria nitrogen in blood serum [1, 3] | Increase in amount of K+ excreted Δ(%) (Diuretic Effect; 0.01 mg/kg) | Increase in amount of Na+ excreted Δ(%) (Diuretic Effect; 0.01 mg/kg) | Increase in amount of urine Δ(%) (Diuretic Effect; 0.01 mg/kg) | Na+/K+ (Diuretic Effect; 0.01 mg/kg) | Increase in amount of K+ excreted Δ(%) (Diuretic Effect; 1.6 mg/kg) | Increase in amount of Na+ excreted Δ(%) (Diuretic Effect; 1.6 mg/kg) | Increase in amount of urine Δ(%) (Diuretic Effect; 1.6 mg/kg) | Na+/K+ (Diuretic Effect; 1.6 mg/kg) | Increase in amount of K+ excreted Δ(%) (Diuretic Effect; 0.1 mg/kg) | Increase in amount of Na+ excreted Δ(%) (Diuretic Effect; 0.1 mg/kg) | Increase in amount of urine Δ(%) (Diuretic Effect; 0.1 mg/kg) | Na+/K+ (Diuretic Effect; 0.1 mg/kg) | also measured
1 | 0.24 nM | CCCn1c(=O)c2[nH]c(C34CC5CC(C3)C(O)C4C5)nc2n(CCC)c1=O (stereo not drawn) [Compound 5, 8-(Trans-6-hydroxy-3-tricyclo[3.3.1.0^3,7]nonyl)-1,3-dipropylxanthine] |  |  |  |  |  |  |  |  |  |  |  |  |  |  | Amount of creatinine in blood serum ([1]; 0.1 mg/kg, control 4.55 ± 0.24 (compound 5), 4.35 ± 0.23 (compound 3)): 2.34 ± 0.24 mg/dL; Amount of uria nitrogen in blood serum ([1]; 0.1 mg/kg, control 137.2 ± 5.0 (compound 5), 139.7 ± 10.2 (compound 3)): 74.4 ± 7.7 mg/dL
2 | 0.37 nM | CCCn1c(=O)c2[nH]c(C34CC5CC3CC(C4)C5=O)nc2n(CCC)c1=O [Compound 1, 8-(9-Oxo-3-tricyclo[3.3.1.0^3,7]nonyl)-1,3-dipropylxanthine] | 2.51 ± 0.41 mg/dL | 81.4 ± 15.9 mg/dL | 37% | 144% | 149% | 1.78 | 36% | 193% | 258% | 2.15 |  |  |  |  | 
3 | 6.1 nM | CCCn1c(=O)c2[nH]c(C34CC5CC(CC3C5)C4)nc2n(CC(C)O)c1=O (stereo not shown) [Compound 7, 3-(2-hydroxypropyl) -8-(3tricyclo[3.3.1.0^3,7]nonyl)-1-propylxanthine] |  |  | 33% | 97% | 140% | 1.48 |  |  |  |  | 23% | 138% | 200% | 1.93 | Amount of creatinine in blood serum [1, 4]: 2.28 ± 0.22 mg/dL; Amount of uria nitrogen in blood serum [1, 5]: 70.0 ± 9.8 mg/dL
4 | 0.31 nM | CCCn1c(=O)c2[nH]c(C34C[C@H]5CC3C[C@@H](C4)[C@H]5O)nc2n(CCC)c1=O (relative stereo) [Compound 4, 8-(cis-9-hydroxy-3tricyclo[3.3.1.0^3,7]nonyl)-1,3-dipropylxanthine] | 2.32 ± 0.48 mg/dL | 75.6 ± 13.9 mg/dL | 43% | 167% | 200% | 1.86 | 35% | 180% | 232% | 2.07 |  |  |  |  | 
5 |  | NS(=O)(=O)c1cc(C(=O)O)c(NCc2ccco2)cc1Cl [furosemide, reference compound] |  |  |  |  |  |  |  |  |  |  |  |  |  |  | effect on serum creatinine ([1]; i.p., 10 mg/kg): tendency to increase the serum creatinine
6 | 5.1 nM | CCCn1c(=O)c2[nH]c(C34CC5CC(CC(O)(C5)C3)C4)nc2n(CCC)c1=O [Compound 8, 8-(3-Hydroxy-1-tricyclo[3.3.1.1^3,7]decyl)-1,3-dipropylxanthine] |  |  |  |  |  |  |  |  |  |  |  |  |  |  | 
7 |  | Cn1c(=O)c2[nH]cnc2n(C)c1=O [aminophylline, reference compound] |  |  |  |  |  |  |  |  |  |  |  |  |  |  | effect of suppressing the increase ([1]; i.p., 10 mg/kg): weak effect of suppressing the increase
8 | 0.59 nM | CCCn1c(=O)c2[nH]c(C34CC5CC(C3)C(=O)C4C5)nc2n(CCC)c1=O (stereo not shown) [Compound 2, 8-(6-Oxo-3-tricyclo[3.3.1.0^3,7]nonyl)-1,3-dipropylxanthine] | 2.51 ± 0.24 mg/dL | 85.0 ± 8.7 mg/dL |  |  |  |  | 8% | 188% | 241% | 2.67 | 32% | 177% | 211% | 2.10 | 
9 | 0.96 nM | CCCn1c(=O)c2[nH]c(C34CC5CC(CC3C5)C4)nc2n(CCCO)c1=O [Compound 6, 3-(3-Hydroxypropyl)-8-(3-tricyclo[3.3.1.0^3,7]nonyl)-1-propylxanthine] |  |  |  |  |  |  |  |  |  |  | 24% | 276% | 396% | 3.03 | Amount of creatinine in blood serum [1, 4]: 2.23 ± 0.15 mg/dL; Amount of uria nitrogen in blood serum [1, 5]: 65.4 ± 5.6 mg/dL; Increase in amount of K+ excreted Δ(%) (Diuretic Effect; 0.025 mg/kg): 5.1%; Increase in amount of Na+ excreted Δ(%) (Diuretic Effect; 0.025 mg/kg): 111%; Increase in amount of urine Δ(%) (Diuretic Effect; 0.025 mg/kg): 134%; Na+/K+ (Diuretic Effect; 0.025 mg/kg): 2.00
